# According to US9260759B2, “Pyrazoloanthrone and derivatives thereof for the treatment of cancers expressing MISRII” (The General Hospital Corporation, priority 2007, dated 2016):
# Key:
# Type in all cases: cell-based
# rat MISRII = molecular target: T1, rat MISRII (Rattus norvegicus, UniProt Q62893); experiment: BRE-luciferase reporter assay in COS7 cells transfected with MISRII; conditions: for BRE-luciferase induction, MIS plus SP600125: COS7, 24 h
# T1 construct: expressed in transfected cells; host or cells: COS7
# T1 sequence (Q62893 18-557): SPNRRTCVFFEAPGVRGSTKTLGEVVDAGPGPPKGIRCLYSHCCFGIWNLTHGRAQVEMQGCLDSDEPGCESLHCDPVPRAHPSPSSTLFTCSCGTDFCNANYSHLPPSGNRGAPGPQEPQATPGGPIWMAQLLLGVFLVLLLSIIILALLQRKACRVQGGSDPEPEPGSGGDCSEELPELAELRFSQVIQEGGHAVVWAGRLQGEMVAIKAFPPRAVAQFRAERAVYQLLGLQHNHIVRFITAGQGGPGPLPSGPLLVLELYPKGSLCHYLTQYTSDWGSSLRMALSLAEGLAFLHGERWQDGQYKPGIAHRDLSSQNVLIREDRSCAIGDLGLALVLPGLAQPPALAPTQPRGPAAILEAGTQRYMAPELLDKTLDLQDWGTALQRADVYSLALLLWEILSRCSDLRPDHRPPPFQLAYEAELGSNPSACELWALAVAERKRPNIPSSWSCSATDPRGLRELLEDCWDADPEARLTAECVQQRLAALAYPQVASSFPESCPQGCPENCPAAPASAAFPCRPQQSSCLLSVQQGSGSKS
# Excerpt: COS7 cells were transiently transfected with MISRH, BRE-Luciferase and phRL-CMV. […] Control cells were transfected with a control plasmid (EGFP-N1 plasmid) instead of the receptor plasmid to keep the total DNA transfected constant. The results shown are the fold-induction over vehicle treated cells and normalized to phRL-CMV expression to correct for variations in cell number and transfection efficiency. […] The results represent the mean values from three independent experiments performed in triplicates (Error bars represent SEM, *p<0.05, **p<0.001).
# To identify molecules that interact with the MISRII, we developed a reporter assay where binding to MISRII activates a firefly luciferase reporter driven by the BMP-responsive element (BRE) promoter kindly provided by Dr. Peter ten Dijke (The Netherlands Cancer Institute, The Netherlands) The BMP promoter region on mouse M. mus is located on chromosome 2 (Chr2) and corresponds to RefSeq No: NT—039207.6 93504644-93506272 (SEQ ID NO:1). The BRE-luciferase reporter (Korchynskyi and ten Dijke, 2002, Logeart-Avramoglou, 2006) has multiple optimized BMP response elements (3 SBE, 7 GC, and 4 CAGC) driving the expression of the firefly luciferase. This reporter construct together with a control Renilla luciferase reporter phRL-CMV (Promega, Madison Wis.) and a rat MISRII cDNA expression construct (Teixeira, 1996) were transiently transfected into COST cells and plated in 384 well plates. Primary screens were performed at the Harvard Institute of Chemistry and Cell Biology screening facility. Compounds from chosen libraries were added at a volume of 100 nl at 5 mg/ml concentration in DMSO into 30 μl cell media and cultured for 24 h at 37° C., after which the luciferase activity was measured with reagents from Promega according to the manufacturer's instructions. A hit was identified as causing a fold induction over the plate median and each compound was tested in duplicate in separate plates. MIS was used to control for intra- and inter-assay variability.
# COS7 cells were plated at a density of 5000 cells/well in 96-well plates for secondary screens. The day after plating cells were transfected with rat MISRII receptor or EGFP-N1 (Clontech, Mountain View Calif.) together with BRE firefly luciferase reporter construct and phRL-CMV using TransIT-LT1 transfection reagent (Mirus Bio Corporation, Madison Wis.). […] Results were obtained using the Dual Luciferase reporter assay according to the manufacturer's instructions (Promega). Plates were read in a Wallac Victor2 luminometer (PerkinElmer, Wellesley Mass.).
# [1] = molecular target: T2, BMP type II receptor (BMPRII) (Homo sapiens, UniProt Q13873); experiment: BRE-luciferase reporter assay in COS7 cells transfected with BMP type II receptor; conditions: cotreatment with BMP2 and 10 μM SP600125, BMPRII-transfected COS7
# T2 construct: expressed in transfected cells; host or cells: COS7
# T2 sequence (Q13873 27-1038): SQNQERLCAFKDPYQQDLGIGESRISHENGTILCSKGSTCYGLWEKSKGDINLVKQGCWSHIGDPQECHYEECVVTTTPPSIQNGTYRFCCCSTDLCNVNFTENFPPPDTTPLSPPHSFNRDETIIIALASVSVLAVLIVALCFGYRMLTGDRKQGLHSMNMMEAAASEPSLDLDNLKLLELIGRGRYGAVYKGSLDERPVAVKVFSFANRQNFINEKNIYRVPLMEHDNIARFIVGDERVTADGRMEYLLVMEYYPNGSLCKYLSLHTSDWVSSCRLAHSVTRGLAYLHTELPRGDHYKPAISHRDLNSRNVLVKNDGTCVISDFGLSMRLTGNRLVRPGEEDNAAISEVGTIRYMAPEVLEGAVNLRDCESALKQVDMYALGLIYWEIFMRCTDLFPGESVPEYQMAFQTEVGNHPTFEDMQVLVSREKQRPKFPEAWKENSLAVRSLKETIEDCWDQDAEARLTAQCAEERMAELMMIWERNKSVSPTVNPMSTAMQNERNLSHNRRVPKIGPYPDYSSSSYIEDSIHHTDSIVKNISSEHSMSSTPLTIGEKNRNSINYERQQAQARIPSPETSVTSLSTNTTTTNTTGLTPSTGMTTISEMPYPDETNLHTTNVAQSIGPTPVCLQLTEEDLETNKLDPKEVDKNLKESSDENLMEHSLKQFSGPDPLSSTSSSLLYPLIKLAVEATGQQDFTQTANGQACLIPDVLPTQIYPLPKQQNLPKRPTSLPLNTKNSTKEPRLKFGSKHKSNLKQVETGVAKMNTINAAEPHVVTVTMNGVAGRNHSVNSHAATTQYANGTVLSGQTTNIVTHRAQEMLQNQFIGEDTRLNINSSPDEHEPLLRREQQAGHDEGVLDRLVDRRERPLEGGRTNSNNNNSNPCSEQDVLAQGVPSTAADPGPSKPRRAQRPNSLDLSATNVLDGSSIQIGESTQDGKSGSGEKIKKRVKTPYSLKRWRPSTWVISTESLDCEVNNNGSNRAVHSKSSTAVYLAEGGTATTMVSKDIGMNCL
# [2] = molecular target: T3, type II receptor for TGFβ (Homo sapiens, UniProt P37173); experiment: CAGA-promoter luciferase reporter in COS7 cells co-transfected with TGFβ type II receptor; conditions: alone or in combination with the receptor-ligand, COS7 (data not shown)
# T3 construct: expressed in transfected cells; host or cells: COS7
# [3] = 5 uM SP600125 with 0.5 ug/ml MIS
# T3 sequence (P37173 23-567): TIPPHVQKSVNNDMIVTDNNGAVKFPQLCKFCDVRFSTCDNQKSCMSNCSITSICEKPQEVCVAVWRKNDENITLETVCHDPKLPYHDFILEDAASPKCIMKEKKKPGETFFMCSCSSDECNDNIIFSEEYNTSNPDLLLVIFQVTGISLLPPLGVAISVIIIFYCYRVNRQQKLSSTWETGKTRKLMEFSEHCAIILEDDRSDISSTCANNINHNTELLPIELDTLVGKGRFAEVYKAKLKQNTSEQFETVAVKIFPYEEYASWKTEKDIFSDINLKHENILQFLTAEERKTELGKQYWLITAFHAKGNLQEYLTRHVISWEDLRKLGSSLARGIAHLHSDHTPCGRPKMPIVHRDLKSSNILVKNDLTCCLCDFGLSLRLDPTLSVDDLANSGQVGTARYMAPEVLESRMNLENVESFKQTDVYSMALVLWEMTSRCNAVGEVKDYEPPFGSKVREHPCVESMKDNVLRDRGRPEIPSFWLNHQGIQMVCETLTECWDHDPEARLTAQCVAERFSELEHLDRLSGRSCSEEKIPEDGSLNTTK
compound,measurement,setting,value
"O=C1c2ccccc2-c2n[nH]c3cccc1c23 [SP600125, anthra[1,9-cd]pyrazol-6(2H)-one]",additional induction over MIS alone,rat MISRII; [3],six-fold
same,"BRE-luciferase induction, MIS plus SP600125",rat MISRII; [3],approximately 16 fold
same,"time course of luciferase activity, cotreatment over each treatment alone","rat MISRII; 10 uM SP600125 and 0.5 ug/ml MIS, after 6 h through 48 h",maintain their synergistic effect
same,"BRE-luciferase induction, MIS plus SP600125",rat MISRII; 10 uM SP600125 with 0.5 ug/ml MIS,22 fold
same,"BRE-luciferase induction, MIS plus SP600125",rat MISRII; 25 uM SP600125 with 0.5 ug/ml MIS,25 fold
same,interaction of MIS and SP600125 on activation of BRE-luciferase (two-way ANOVA),"rat MISRII; combined compared with either alone, COS7",synergistic effect
same,decrease of luciferase activity compared to BMP2 alone,[1],25%
same,effect on CAGA-luciferase reporter,[2],did not have any significant effect
